Activity calls are given as the source filed them. No cut-off for these calls is given here.
Key:
MCF7 = test: Antiproliferative activity against human MCF7 cells after 72 hrs by MTT assay; assay type: functional, cell-based; conditions: MCF7, 72 h
SW-620 [1] = test: Antiproliferative activity against human SW620 cells after 72 hrs by MTT assay; assay type: functional, cell-based; conditions: SW-620, 72 h
HepG2 = test: Antiproliferative activity against human HepG2 cells after 72 hrs by MTT assay; assay type: functional, cell-based; conditions: HepG2, 72 h
HeLa [2] = test: Antiproliferative activity against human HeLa cells after 72 hrs by MTT assay; assay type: functional, cell-based
BJ = test: Antiproliferative activity against human BJ cells after 72 hrs by MTT assay; assay type: cell-based
Calf thymus DNA [3] = test: Binding affinity to calf thymus DNA assessed as change in melting temperature at drug/DNA ratio of 0.25 by spectrophotmetric method; assay type: nucleic-acid assay; conditions: Bos taurus
Calf thymus DNA [4] = test: Binding affinity to calf thymus DNA assessed as change in melting temperature at drug/DNA ratio of 0.5 by spectrophotmetric method; assay type: nucleic-acid assay; conditions: Bos taurus
Calf thymus DNA [5] = test: Binding affinity to calf thymus DNA assessed as change in melting temperature at drug/DNA ratio of 1 by spectrophotmetric method; assay type: nucleic-acid assay; conditions: Bos taurus
Calf thymus DNA [6] = test: Binding affinity to calf thymus DNA at 1 to 25 uM by circular dichroism spectral analysis; assay type: nucleic-acid assay; conditions: Bos taurus
[7] = molecular target: T1, DNA topoisomerase 1 (Homo sapiens) (UniProt P11387); test: Inhibition of human topoisomerase1-mediated DNA relaxation assessed as DNA intercalation at 5 to 50 uM using supercoiled pUC19 as substrate pretreated with substrate for 45 mins followed by enzyme addition measured by agarose gel electrophoresis
T1 sequence (whole entry): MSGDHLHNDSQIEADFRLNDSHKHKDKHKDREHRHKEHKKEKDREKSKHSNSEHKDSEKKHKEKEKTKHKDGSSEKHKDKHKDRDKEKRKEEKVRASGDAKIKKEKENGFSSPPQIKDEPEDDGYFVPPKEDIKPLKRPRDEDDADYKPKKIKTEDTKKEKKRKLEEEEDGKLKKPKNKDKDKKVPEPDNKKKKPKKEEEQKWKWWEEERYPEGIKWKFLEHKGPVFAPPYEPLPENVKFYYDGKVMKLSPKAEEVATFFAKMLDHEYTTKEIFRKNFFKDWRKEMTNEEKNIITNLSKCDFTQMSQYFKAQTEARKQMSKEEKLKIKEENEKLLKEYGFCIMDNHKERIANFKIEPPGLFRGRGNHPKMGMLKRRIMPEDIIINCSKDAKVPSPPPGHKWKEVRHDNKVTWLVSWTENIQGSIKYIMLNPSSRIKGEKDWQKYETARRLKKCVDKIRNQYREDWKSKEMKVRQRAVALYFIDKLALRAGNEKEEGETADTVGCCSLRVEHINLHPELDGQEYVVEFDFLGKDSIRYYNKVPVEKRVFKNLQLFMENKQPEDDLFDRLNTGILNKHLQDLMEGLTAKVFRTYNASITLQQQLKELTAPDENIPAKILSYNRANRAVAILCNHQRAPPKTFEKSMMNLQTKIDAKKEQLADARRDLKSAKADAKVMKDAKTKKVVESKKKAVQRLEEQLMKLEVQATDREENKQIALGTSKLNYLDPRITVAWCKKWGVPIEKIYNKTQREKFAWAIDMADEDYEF

[8] = molecular target: T1, DNA topoisomerase 1 (Homo sapiens); test: Poison activity at human topoisomerase1 assessed as accumulation of nicked DNA at 5 to 50 uM using supercoiled pUC19 as substrate pretreated with substrate for 45 mins followed by enzyme addition measured by agarose gel electrophoresis
[9] = molecular target: T1, DNA topoisomerase 1 (Homo sapiens); test: Poison activity at human topoisomerase1 assessed as accumulation of nicked DNA at 10 uM using supercoiled pUC19 as substrate pretreated with substrate for 45 mins followed by enzyme addition measured by agarose gel electrophoresis relative to control
[10] = molecular target: T1, DNA topoisomerase 1 (Homo sapiens); test: Poison activity at human topoisomerase1 assessed as accumulation of nicked DNA at 20 uM using supercoiled pUC19 as substrate pretreated with substrate for 45 mins followed by enzyme addition measured by agarose gel electrophoresis relative to control
[11] = molecular target: T1, DNA topoisomerase 1 (Homo sapiens); test: Poison activity at human topoisomerase1 assessed as accumulation of nicked DNA at 50 uM using supercoiled pUC19 as substrate pretreated with substrate for 45 mins followed by enzyme addition measured by agarose gel electrophoresis relative to control
[12] = Drug uptake in human Caki2 cells at 50 uM measured after 5 hrs by Phalloidin CruzFluorTM 488 conjugate/propidium iodide staining based fluorescence microscopic analysis; assay type: ADME, cell-based; conditions: caki-2, 5 h
[13] = Drug uptake in nucleus of human Caki2 cells at 50 uM measured after 5 hrs by Phalloidin CruzFluorTM 488 conjugate/propidium iodide staining based fluorescence microscopic analysis; assay type: ADME, subcellular; conditions: caki-2, 5 h
[14] = Drug uptake in cytoplasm of human Caki2 cells at 50 uM measured after 5 hrs by Phalloidin CruzFluorTM 488 conjugate/propidium iodide staining based fluorescence microscopic analysis; assay type: ADME, subcellular; conditions: caki-2, 5 h
CAKI-2 = test: Cytotoxicity against human Caki2 cells after 72 hrs by MTT assay; assay type: functional, cell-based; conditions: CAKI-2, 72 h
Calf thymus DNA [15] = test: Binding affinity to calf thymus DNA at 50 uM by circular dichroism spectral analysis; assay type: nucleic-acid assay; conditions: Bos taurus
SW-620 [16] = test: Induction of apoptosis in human SW620 cells assessed as phenotypic changes after 24 to 48 hrs by microscopic analysis; assay type: functional, cell-based
HeLa [17] = test: Induction of apoptosis in human HeLa cells assessed as phenotypic changes after 24 to 48 hrs by microscopic analysis; assay type: functional, cell-based
HeLa [18] = test: Cell cycle arrest in human HeLa cells assessed as accumulation at subG1 phase at 1 to 5 uM after 24 hrs by propidium iodide staining based flow cytometric method; assay type: functional
SW-620 [19] = test: Cell cycle arrest in human SW620 cells assessed as accumulation at subG1 phase at 1 to 5 uM after 24 hrs by propidium iodide staining based flow cytometric method; assay type: functional
HeLa [20] = test: Cell cycle arrest in human HeLa cells assessed as accumulation at subG1 phase at 1 uM after 48 hrs by propidium iodide staining based flow cytometric method (reference value: 17 to 20.1 %); assay type: functional
HeLa [21] = test: Cell cycle arrest in human HeLa cells assessed as accumulation at subG1 phase at 5 uM after 48 hrs by propidium iodide staining based flow cytometric method (reference value: 17 to 20.1 %); assay type: functional
SW-620 [22] = test: Cell cycle arrest in human SW620 cells assessed as accumulation at subG1 phase at 1 uM after 48 hrs by propidium iodide staining based flow cytometric method (reference value: 4.1 to 11.3 %); assay type: functional
SW-620 [23] = test: Cell cycle arrest in human SW620 cells assessed as accumulation at subG1 phase at 5 uM after 48 hrs by propidium iodide staining based flow cytometric method (reference value: 4.1 to 11.3 %); assay type: functional
HeLa [24] = test: Induction of apoptosis in human HeLa cells assessed as activation of caspase-8 at 1 uM after 24 to 48 hrs by colorimetric assay; assay type: functional, cell-based
SW-620 [25] = test: Induction of apoptosis in human SW620 cells assessed as activation of caspase-8 at 1 uM after 24 to 48 hrs by colorimetric assay; assay type: functional, cell-based
HeLa [26] = test: Induction of apoptosis in human HeLa cells assessed as activation of caspase-2 at 1 uM measured after 48 hrs by colorimetric assay; assay type: functional, cell-based
SW-620 [27] = test: Induction of apoptosis in human SW620 cells assessed as activation of caspase-2 at 1 uM measured after 48 hrs by colorimetric assay; assay type: functional, cell-based
SW-620 [28] = test: Induction of apoptosis in human SW620 cells assessed as activation of caspase-6 at 1 uM measured after 48 hrs by colorimetric assay; assay type: functional, cell-based
Calf thymus DNA [29] = test: Binding affinity to calf thymus DNA at 1 to 50 uM by circular dichroism spectral analysis; assay type: nucleic-acid assay; conditions: Bos taurus
[30] = molecular target: DNA topoisomerase 2-alpha (Homo sapiens) (UniProt P11388); test: Poison activity at human topoisomerase2 assessed as accumulation of linear DNA at 10 to 50 uM using supercoiled pUC19 as substrate pretreated with substrate for 45 mins followed by […] measured by ethidium bromide staining based agarose gel electrophoresis
Sequence of DNA topoisomerase 2-alpha (Homo sapiens) (P11388 whole entry): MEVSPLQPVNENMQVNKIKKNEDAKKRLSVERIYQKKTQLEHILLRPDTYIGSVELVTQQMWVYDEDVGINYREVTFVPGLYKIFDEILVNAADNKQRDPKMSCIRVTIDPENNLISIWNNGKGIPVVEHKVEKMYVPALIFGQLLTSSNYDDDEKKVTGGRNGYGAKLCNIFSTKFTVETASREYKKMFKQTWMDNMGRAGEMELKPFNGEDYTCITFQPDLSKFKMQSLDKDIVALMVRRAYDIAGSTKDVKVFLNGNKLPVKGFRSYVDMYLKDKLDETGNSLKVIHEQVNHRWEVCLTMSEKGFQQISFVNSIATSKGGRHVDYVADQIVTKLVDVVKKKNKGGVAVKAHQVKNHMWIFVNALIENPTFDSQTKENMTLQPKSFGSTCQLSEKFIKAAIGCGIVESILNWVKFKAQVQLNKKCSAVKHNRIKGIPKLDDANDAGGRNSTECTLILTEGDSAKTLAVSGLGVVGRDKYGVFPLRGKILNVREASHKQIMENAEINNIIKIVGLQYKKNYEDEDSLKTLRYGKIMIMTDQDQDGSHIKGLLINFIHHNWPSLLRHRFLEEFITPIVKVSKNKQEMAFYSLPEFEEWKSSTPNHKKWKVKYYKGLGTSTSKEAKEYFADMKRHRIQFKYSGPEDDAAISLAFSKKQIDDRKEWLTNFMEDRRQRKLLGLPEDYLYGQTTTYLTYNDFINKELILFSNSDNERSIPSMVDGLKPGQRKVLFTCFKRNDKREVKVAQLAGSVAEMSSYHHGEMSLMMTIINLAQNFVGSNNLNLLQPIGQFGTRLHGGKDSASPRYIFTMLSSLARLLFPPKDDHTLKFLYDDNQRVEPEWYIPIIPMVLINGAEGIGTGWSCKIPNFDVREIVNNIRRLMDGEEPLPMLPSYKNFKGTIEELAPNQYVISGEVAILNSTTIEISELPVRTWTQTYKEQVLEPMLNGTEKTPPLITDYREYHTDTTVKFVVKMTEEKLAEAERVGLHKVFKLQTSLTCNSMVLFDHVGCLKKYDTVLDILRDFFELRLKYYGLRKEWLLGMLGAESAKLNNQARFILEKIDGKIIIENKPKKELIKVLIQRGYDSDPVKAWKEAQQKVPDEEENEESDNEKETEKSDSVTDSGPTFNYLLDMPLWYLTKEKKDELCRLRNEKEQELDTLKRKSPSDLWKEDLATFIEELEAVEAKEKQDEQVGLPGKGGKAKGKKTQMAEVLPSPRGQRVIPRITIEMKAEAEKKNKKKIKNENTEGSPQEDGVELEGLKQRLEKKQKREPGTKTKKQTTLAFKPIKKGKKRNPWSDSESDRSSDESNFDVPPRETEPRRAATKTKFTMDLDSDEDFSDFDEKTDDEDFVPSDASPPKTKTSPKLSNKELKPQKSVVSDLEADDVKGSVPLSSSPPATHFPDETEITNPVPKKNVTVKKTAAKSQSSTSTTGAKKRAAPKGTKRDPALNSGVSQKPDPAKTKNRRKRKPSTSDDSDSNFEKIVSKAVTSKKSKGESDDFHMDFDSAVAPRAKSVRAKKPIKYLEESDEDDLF

Structure (SMILES) | IC50 (MCF7) | IC50 (SW-620 [1]) | IC50 (HepG2) | IC50 (HeLa [2]) | IC50 (BJ) | ΔTm (Calf thymus DNA [4]) | ΔTm (Calf thymus DNA [5]) | Drug uptake [12] | Drug uptake [13] | Drug uptake [14] | IC50 (CAKI-2) | Activity (Calf thymus DNA [15]) | also measured
Cl.Cl.c1ccc2c(c1)CN(c1nc3ccc(C4=NCCN4)cc3s1)/C2=N/c1nc2ccc(C3=NCCN3)cc2s1 | 1.48 µM | > 100 µM | 35 µM | 74.5 µM | 31.8 µM | 10.5 °C | 12.2 °C | Active | Active | Active | 12.6 µM | – | ΔTm (Calf thymus DNA [3]): 6.8 °C; Activity (Calf thymus DNA [6]): Active; inhibition (qualitative) [7]: Active; Activity [8]: Active; fold change (FC) [9]: 1.5 to 3.7; fold change (FC) [10]: 3.7 to 9; fold change (FC) [11]: 3.5
O=C1c2ccccc2CN1c1nc2ccc(C3=NCCN3)cc2[nH]1 | 2.9 µM | 8.67 µM | 16.6 µM | 6.12 µM | 4.71 µM | – | – | – | – | – | – | – | –
c1ccc2c(c1)CN(c1nc3ccccc3s1)/C2=N/c1nc2ccccc2s1 | 0.08 µM | 6.98 µM | 0.82 µM | 4.68 µM | 4.87 µM | -1.3 °C | -2.2 °C | Active | Active | Active | 11.1 µM | inactive | –
Cl.O=C1c2ccccc2CN1c1nc2ccc(C3=NCCN3)cc2s1 | 0.7 µM | 0.74 µM | 0.78 µM | 1 µM | 0.2 µM | 3.1 °C | 6.2 °C | Active | Active | Active | 1.5 µM | – | Activity (SW-620 [16]): Active; Activity (HeLa [17]): Active; Activity (HeLa [18]): inactive; Activity (SW-620 [19]): inactive; Activity (HeLa [20]): 29.1%; Activity (HeLa [21]): 70.7%; Activity (SW-620 [22]): 34.4%; Activity (SW-620 [23]): 85.9%; Activity (HeLa [24]): inactive; Activity (SW-620 [25]): inactive; Activity (HeLa [26]): Active; Activity (SW-620 [27]): Active; Activity (SW-620 [28]): Active; ΔTm (Calf thymus DNA [3]): 1.8 °C; Activity (Calf thymus DNA [29]): Active; Activity [30]: Active
N=C(N)c1ccc2nc(N3Cc4ccccc4C3=O)[nH]c2c1 | > 100 µM | > 100 µM | 91.1 µM | 52.2 µM | 46.9 µM | – | – | – | – | – | – | – | –
COc1cc([C@@H]2c3cc4c(cc3[C@@H](O[C@@H]3O[C@@H]5CO[C@@H](C)O[C@H]5[C@H](O)[C@H]3O)[C@H]3COC(=O)[C@H]23)OCO4)cc(OC)c1O | – | – | – | – | – | – | – | – | – | – | – | – | Activity [30]: Active
N#Cc1ccc2nc(/N=C3\c4ccccc4CN3c3nc4ccc(C#N)cc4[nH]3)[nH]c2c1 | 0.02 µM | 70 µM | 17.9 µM | 75.7 µM | > 100 µM | -0.4 °C | -0.5 °C | Active | Active | Active | > 100 µM | inactive | –
N#Cc1ccc2nc(/N=C3\c4ccccc4CN3c3nc4ccc(C#N)cc4s3)sc2c1 | – | – | – | – | – | -1.1 °C | -0.7 °C | Active | Active | Active | 21.7 µM | inactive | –

— ChEMBL document CHEMBL4219121, “Synthesis, antitumor activity and DNA binding features of benzothiazolyl and benzimidazolyl substituted isoindolines” (Bioorg Med Chem, 2018)
